# Data: patent US5026733A, “Brain function-improving medicine” (Tsumura & Co., priority 1988, dated 1991)
# What was measured:
# [1] = tested on: acetylcholine (ACh) content at subcerebral part; assay: ACh content at subcerebral part (HPLC-ECD), with or without scopolamine; assay type: in vivo, male ICR strain mouse (9-weeks-old)
# Method: (§1) The compound of the formula was orally administered to a male ICR strain mouse (9-weeks-old), and after 2 hours, 2 mg/kg of scopolamine was applied to the abdominal cavity. After 30 minutes, the mouse was irradiated with 10 KW of microwaves for 0.5 seconds, and the brain was extracted and then divided into two parts, that is, the cerebral cortex (inclusive of hippocampus) and the subcerebral part. The wet weights were measured and the acetylcholine (hereinafter referred to as "ACh") contents were measured according to the following method.
# (§2) Each part of the brain was homogenized by 0.1N perchloric acid (HClO4)and subjected to centrifugal separation under 30000 g for 15 minutes. The supernatant was passed through a 0.45 μm microfilter and poured into HPLC-ECD.
# (§3) The measurement conditions were as follows.
# (§4) Moving phase: phosphate buffer (pH 8.0)
# (§5) Enzyme immobilized column: Eicom AC-Enzmpak
# (§6) Anakyzing column: Eicom AC-ODS (4.6 mm in diameter and 250 mm in length)
# (§7) The compound of the formula was orally administered while scopolamine was not applied, and after 2 hours and 30 minutes, the ACh content was determined in the same manner as described above.
# [2] = tested on: acetylcholine (ACh) content at cerebral cortex; assay: ACh content at cerebral cortex (HPLC-ECD), with or without scopolamine; assay type: in vivo, male ICR strain mouse (9-weeks-old)
# Method: as §1, §2, §3, §4, §5, §6, §7
# [3] = tested on: locomotor activity by scopolamine; assay: Scopolamine-induced locomotor activity measured by animex; assay type: in vivo, male ICR strain mouse (6-weeks-old); settings: 3 mg/kg p.o.
# Method: In the same manner as described in Test Example 2, 3 mg/kg of the compound of the formula was orally administered to a male ICR strain mouse (6-weeks-old), and after 2 hours, 2 mg/kg of scopolamine was intraperitoneally administered. For 120 minutes from the point of the application, the locomotor activity was measured by an animex. To the control group, 1% Tween 80 was orally administered and 2 mg/kg of scopolamine was intraperitoneally administered, and the locomotor activity was similarly measured.
# [4] = Spontaneous movement quantity measured by animex; assay type: in vivo, male ICR strain mouse (5-weeks-old); settings: 3 mg/kg p.o.; 4 hours after administration; control 5123 ± 259
# Method: (§8) A male ICR strain mouse (5-weeks-old) was admitted in a bright chamber of a step-through passive avoidance learning device. After 60 seconds, a guillotine door was opened. Just after the mouse entered a dark room, the guillotine door was shut, and a foot shock of 0.15 mA was given to the mouse for 5 seconds. This operation was conducted until the mouse stayed in the bright room for more than 1 minute. Then, the mouse was taken out and 3 mg/kg of the compound of the formula was orally administered, and the mouse was returned to a home cage.
# (§9) After 24 hours, the mouse was admitted into the bright chamber, and after 60 seconds, the guillotine door was opened and the time required for the mouse to enter in the dark room was measured as 300 seconds at longest. Furthermore, 3 mg/kg of the compound of the formula was orally administered, and the spontaneous movement quantity for 4 hours after the oral administration was measured by an animex and the total quantity was calculated. Note, 1% Tween was orally administered to the control group.
# [5] = Acute toxicity by oral administration, rats; settings: rat, in vivo
# [6] = Step-through passive avoidance learning test; assay type: in vivo, male ICR strain mouse (5-weeks-old); settings: 3 mg/kg p.o.
# Method: as §8, §9
# [7] = tested on: locomotor activity by methamphethamine; assay: Methamphethamine-induced locomotor activity measured by animex; assay type: in vivo, male ICR strain mouse (5-weeks-old); settings: 3 mg/kg p.o.
# Method: The compound of the formula (3 mg/kg) was orally administered to a male ICR strain mouse (5-weeks-old), and after 2 hours, 2 mg/kg of methamphethamine was intraperitoneally administered. The locomotor activity for every 15 minutes was measured by an animex, and the measurement was conducted for 120 minutes. To the control group, 1% Tween 80 was administered instead of the compound of the formula, and after 2 hours, 2 mg/kg of methamphethamine was intraperitoneally administered. The locomotor activity was similarly measured.
# [8] = Acute toxicity by oral administration, mice
# [9] = also under the application of scopolamine
compound,measurement,setting,value
COc1cc2c(c(OC)c1OC)-c1c(cc(OC)c(OC)c1OC)C[C@](C)(O)[C@@H](C)C2 [compound of the formula],ACh content at subcerebral part,"[1]; 3 mg/kg p.o., 2 mg/kg scopolamine after 2 h, scopolamine alone 23.3",26.9 nM/g of wet weight
same,ACh content at subcerebral part,"[1]; 3 mg/kg p.o., no scopolamine, 2 h 30 min, untreated 27.8",35.0 nM/g of wet weight
same,ACh content at subcerebral part,"[1]; 30 mg/kg p.o., 2 mg/kg scopolamine after 2 h, scopolamine alone 23.3",26.1 nM/g of wet weight
same,ACh content at subcerebral part,"[1]; 30 mg/kg p.o., no scopolamine, 2 h 30 min, untreated 27.8",38.9 nM/g of wet weight
same,ACh content at subcerebral part (in words),[1]; [9],increases the ACh contents at the cerebral cortex and the subcerebral part
same,ACh content at cerebral cortex,"[2]; 3 mg/kg p.o., 2 mg/kg scopolamine after 2 h, scopolamine alone 11.4",13.9 nM/g of wet weight
same,ACh content at cerebral cortex,"[2]; 3 mg/kg p.o., no scopolamine, 2 h 30 min, untreated 15.7",20.9 nM/g of wet weight
same,ACh content at cerebral cortex,"[2]; 30 mg/kg p.o., 2 mg/kg scopolamine after 2 h, scopolamine alone 11.4",13.7 nM/g of wet weight
same,ACh content at cerebral cortex,"[2]; 30 mg/kg p.o., no scopolamine, 2 h 30 min, untreated 15.7",21.7 nM/g of wet weight
same,ACh content at cerebral cortex (in words),[2]; [9],increases the ACh contents at the cerebral cortex
same,locomotor activity by scopolamine (in words),[3],controls the locomotor activity by scopolamine
same,locomotor activity,"[3]; 2 h before 2 mg/kg i.p. scopolamine, for 120 minutes, control 6353±296",3991±389
same,sum of spontaneous movement quantity for 4 hours,[4],6693 ± 474
same,LD50,[5],900 mg/kg
same,avoidance learning function (in words),[6],a reduction of the avoidance learning function is not observed
same,time required for mouse to enter dark room,"[6]; 24 hours after foot shock training, measured as 300 seconds at longest, control 229 ± 30.4",> 300 s
same,locomotor activity by methamphethamine (in words),[7],controls the locomotor activity by methamphethamine
same,locomotor activity after 15 minutes,"[7]; 2 h before 2 mg/kg i.p. methamphethamine, after 15 minutes, control 1250 ± 68",1034 ± 111
same,locomotor activity after 30 minutes,"[7]; 2 h before 2 mg/kg i.p. methamphethamine, after 30 minutes, control 1551 ± 33",1295 ± 34
same,locomotor activity after 45 minutes,"[7]; 2 h before 2 mg/kg i.p. methamphethamine, after 45 minutes, control 1511 ± 32",1245 ± 50
same,locomotor activity after 60 minutes,"[7]; 2 h before 2 mg/kg i.p. methamphethamine, after 60 minutes, control 1429 ± 38",1156 ± 49
same,locomotor activity after 75 minutes,"[7]; 2 h before 2 mg/kg i.p. methamphethamine, after 75 minutes, control 1344 ± 34",1087 ± 40
same,locomotor activity after 90 minutes,"[7]; 2 h before 2 mg/kg i.p. methamphethamine, after 90 minutes, control 1228 ± 44",989 ± 53
same,locomotor activity after 120 minutes,"[7]; 2 h before 2 mg/kg i.p. methamphethamine, after 120 minutes, control 1126 ± 28",898 ± 60
same,LD50,"[8]; mouse, in vivo, po",900 mg/kg
same,toxicity (in words),"[8]; oral acute toxicity, mice and rats",low toxicity
